Calls of active or inactive are those of the source. No cut-off for these calls is given here.
How the values were obtained:
[1] = biological target: T1, Mitogen-activated protein kinase; ERK1/ERK2 (Homo sapiens) (UniProt P27361+P28482); assay: Inhibition of ERK1/2 phosphorylation in human A549 cells assessed as peak effect time by Western blot analysis; type: cell-based
A549 [2] = assay: Effect on p27/Kip protein expression in human A549 cells at 1 to 100 uM after 24 hrs by Western blot analysis; type: functional, cell-based
[3] = biological target: T1, Mitogen-activated protein kinase; ERK1/ERK2 (Homo sapiens); assay: Inhibition of ERK1/2 phosphorylation in human A549 cells after 24 hrs by Western blot analysis; type: cell-based
A549 [4] = assay: Effect on ERK1 gene expression in human A549 cells at 5 to 25 uM after 24 hrs by RT-PCR analysis; type: functional, cell-based
A549 [5] = assay: Cell cycle arrest in human A549 cells assessed as accumulation at G2/M phase at 50 uM after 24 hrs by acridine orange staining-based flow cytometry (Rvb =16.66 +/- 0.622 %); type: functional
A549 [6] = assay: Effect on p21Waf1/Cip1 protein expression in human A549 cells at 1 to 100 uM after 24 hrs by Western blot analysis; type: functional, cell-based
A549 [7] = assay: Effect on cyclinD1 protein expression in human A549 cells at 1 to 100 uM after 24 hrs by Western blot analysis; type: functional, cell-based
[8] = Antiproliferative activity against human astrocytes; type: cell-based; settings: astrocyte
A549 [9] = assay: Cell cycle arrest in human A549 cells assessed as accumulation at G0/G1 phase at 25 uM after 24 hrs by acridine orange staining-based flow cytometry (Rvb =44.85 +/- 0.866 %); type: functional
A549 [10] = assay: Inhibition of Rsk90 phosphorylation in human A549 cells after 24 hrs by Western blot analysis; type: cell-based
A549 [11] = assay: Inhibition of CREB phosphorylation in human A549 cells after 24 hrs by Western blot analysis; type: cell-based
Medulloblastoma cell = assay: Antiproliferative activity against human medulloblastoma cells; type: functional
Glioma cell = assay: Antiproliferative activity against human glioma cells; type: functional, cell-based
A549 [12] = assay: Cell cycle arrest in human A549 cells assessed as accumulation at S phase at 50 uM after 24 hrs by acridine orange staining-based flow cytometry (Rvb =26.89 +/- 2.997 %); type: functional
A549 [13] = assay: Cell cycle arrest in human A549 cells assessed as accumulation at G0/G1 phase at 50 uM after 24 hrs by acridine orange staining-based flow cytometry (Rvb =44.85 +/- 0.866 %); type: functional
Homo sapiens [14] = species on record: Homo sapiens; assay: Antiproliferative activity against human lung adenocarcinoma cells; type: functional
A549 [15] = assay: Cell cycle arrest in human A549 cells assessed as accumulation at S phase at 10 uM after 24 hrs by acridine orange staining-based flow cytometry (Rvb =26.89 +/- 2.997 %); type: functional
Homo sapiens [16] = species on record: Homo sapiens; assay: Antiproliferative activity against human colon adenocarcinoma cells; type: functional
[17] = biological target: T1, Mitogen-activated protein kinase; ERK1/ERK2 (Homo sapiens); assay: Inhibition of PMA-stimulated ERK1/2 phosphorylation in human A549 cells after 24 hrs by Western blot analysis; type: cell-based
[18] = biological target: T1, Mitogen-activated protein kinase; ERK1/ERK2 (Homo sapiens); assay: Inhibition of ERK1/2 phosphorylation in human A549 cells at 25 uM by Western blot analysis; type: cell-based; settings: TDE = time-dependent effect
A549 [19] = assay: Cell cycle arrest in human A549 cells assessed as accumulation at G0/G1 phase at 10 uM after 24 hrs by acridine orange staining-based flow cytometry (Rvb =44.85 +/- 0.866 %); type: functional
Homo sapiens [20] = species on record: Homo sapiens; assay: Antiproliferative activity against human neuroblastoma cells; type: functional, cell-based
A549 [21] = assay: Effect on CREB1 gene expression in human A549 cells at 5 to 25 uM after 24 hrs by RT-PCR analysis; type: functional, cell-based
A549 [22] = assay: Effect on total ERK1/2 levels in human A549 cells by Western blot analysis in presence of PMA; type: functional, cell-based
A549 [23] = assay: Cell cycle arrest in human A549 cells assessed as accumulation at G2/M phase at 10 uM after 24 hrs by acridine orange staining-based flow cytometry (Rvb =16.66 +/- 0.622 %); type: functional
A549 [24] = assay: Cell cycle arrest in human A549 cells after 24 hrs by acridine orange staining-based flow cytometry; type: functional
[25] = Antiproliferative activity against human skin fibroblast
A549 [26] = assay: Effect on total ERK1/2 levels in human A549 cells by Western blot analysis; type: functional, cell-based
A549 [27] = assay: Cell cycle arrest in human A549 cells assessed as accumulation at G2/M phase at 25 uM after 24 hrs by acridine orange staining-based flow cytometry (Rvb =16.66 +/- 0.622 %); type: functional
Rhabdomyosarcoma cell = assay: Antiproliferative activity against human rhabdomyosarcoma cells; type: functional, cell-based
A549 [28] = assay: Cell cycle arrest in human A549 cells assessed as accumulation at S phase at 25 uM after 24 hrs by acridine orange staining-based flow cytometry (Rvb =26.89 +/- 2.997 %); type: functional
[29] = biological target: Dual specificity mitogen-activated protein kinase kinase; MEK1/2 (Homo sapiens) (UniProt P36507+Q02750); assay: Inhibition of MEK1/2 phosphorylation in human A549 cells after 24 hrs by Western blot analysis; type: cell-based
Hepatocyte = assay: Antiproliferative activity against human hepatocytes; type: cell-based

T1 sequence (P27361 whole entry, looked up): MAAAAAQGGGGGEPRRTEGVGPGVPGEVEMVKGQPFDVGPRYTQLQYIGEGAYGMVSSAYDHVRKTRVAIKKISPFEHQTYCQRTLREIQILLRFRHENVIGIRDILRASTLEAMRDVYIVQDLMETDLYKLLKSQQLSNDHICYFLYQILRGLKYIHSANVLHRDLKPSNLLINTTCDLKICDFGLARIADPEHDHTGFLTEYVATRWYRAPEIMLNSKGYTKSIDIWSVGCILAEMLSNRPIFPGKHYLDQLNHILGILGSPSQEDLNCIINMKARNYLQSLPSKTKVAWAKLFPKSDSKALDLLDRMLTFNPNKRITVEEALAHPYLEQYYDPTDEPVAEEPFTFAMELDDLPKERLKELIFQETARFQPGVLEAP
T1 sequence (P28482 whole entry, looked up): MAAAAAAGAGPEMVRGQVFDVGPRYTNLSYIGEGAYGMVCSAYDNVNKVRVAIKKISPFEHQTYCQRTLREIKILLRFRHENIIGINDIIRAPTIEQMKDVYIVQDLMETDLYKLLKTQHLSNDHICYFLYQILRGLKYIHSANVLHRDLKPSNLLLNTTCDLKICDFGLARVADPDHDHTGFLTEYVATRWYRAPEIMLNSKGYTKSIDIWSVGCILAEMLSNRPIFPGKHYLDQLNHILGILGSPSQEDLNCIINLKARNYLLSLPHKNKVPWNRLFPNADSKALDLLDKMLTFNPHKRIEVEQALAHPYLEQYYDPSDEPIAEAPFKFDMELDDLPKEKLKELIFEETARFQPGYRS
Dual specificity mitogen-activated protein kinase kinase; MEK1/2 (Homo sapiens), sequence (P36507 whole entry, looked up): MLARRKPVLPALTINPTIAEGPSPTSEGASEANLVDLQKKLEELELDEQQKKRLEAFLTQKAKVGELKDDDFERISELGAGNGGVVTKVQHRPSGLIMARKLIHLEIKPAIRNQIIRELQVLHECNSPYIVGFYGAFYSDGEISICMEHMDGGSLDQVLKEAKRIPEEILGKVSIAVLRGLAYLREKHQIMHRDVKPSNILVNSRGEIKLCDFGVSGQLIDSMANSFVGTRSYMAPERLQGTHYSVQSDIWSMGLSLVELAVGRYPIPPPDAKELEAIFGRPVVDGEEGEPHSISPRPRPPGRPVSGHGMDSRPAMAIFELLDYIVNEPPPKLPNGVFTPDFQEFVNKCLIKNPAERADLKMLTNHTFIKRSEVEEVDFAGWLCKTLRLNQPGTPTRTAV
Dual specificity mitogen-activated protein kinase kinase; MEK1/2 (Homo sapiens), sequence (Q02750 whole entry, looked up): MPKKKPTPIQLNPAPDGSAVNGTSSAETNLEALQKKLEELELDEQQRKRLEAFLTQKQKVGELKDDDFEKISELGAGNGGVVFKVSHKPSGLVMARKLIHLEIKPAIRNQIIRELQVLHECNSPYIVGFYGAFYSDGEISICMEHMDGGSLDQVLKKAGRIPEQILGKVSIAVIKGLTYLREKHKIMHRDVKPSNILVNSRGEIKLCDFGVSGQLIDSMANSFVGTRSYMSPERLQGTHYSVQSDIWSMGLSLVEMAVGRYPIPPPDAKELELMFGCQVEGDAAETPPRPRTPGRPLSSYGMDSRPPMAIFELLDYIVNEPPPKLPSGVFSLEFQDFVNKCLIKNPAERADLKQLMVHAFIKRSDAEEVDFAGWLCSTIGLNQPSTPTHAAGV

In the case of `Oc1ccc(-c2nnc(Nc3ccc(F)cc3)s2)c(O)c1`, the TIME [1] is reported as 24 h, the Activity (A549 [2]) is reported as “inactive” and the inhibition [3] is reported as “Dose-dependent effect”. The Activity (A549 [4]) was “inactive”, the Activity (A549 [5]) was 5.403% and the Activity (A549 [6]) was “inactive”. The Activity (A549 [7]) was “inactive”, the Activity [8] was “Non-toxic” and the Activity (A549 [9]) was 46.97%. The inhibition (A549 [10]) was “Active”, the inhibition (A549 [11]) was “Active” and the Activity (Medulloblastoma cell) was “Active”. The Activity (Glioma cell) was “Active”, the Activity (A549 [12]) was 11.31% and the Activity (A549 [13]) was 57.4%. The Activity (Homo sapiens [14]) was “Active”, the Activity (A549 [15]) was 22.62% and the Activity (Homo sapiens [16]) was “Active”. For the same compound, the inhibition [17] was “Dose-dependent effect”, the inhibition [18] was “tde” and the Activity (A549 [19]) was 43.4%. For the same compound, the Activity (Homo sapiens [20]) was “Active”, the Activity (A549 [21]) was “inactive” and the Activity (A549 [22]) was “inactive”. The Activity (A549 [23]) was 12.89%, the Activity (A549 [24]) was “Dose-dependent effect” and the Activity [25] was “Non-toxic”. For the same compound, the Activity (A549 [26]) was “inactive”, the Activity (A549 [27]) was 11.03% and the Activity (Rhabdomyosarcoma cell) was “Active”. For the same compound, the Activity (A549 [28]) was 19.84%, the inhibition [29] was “Active” and the Activity (Hepatocyte) was “Non-toxic”.

Reference: ChEMBL document CHEMBL2069187, “2-Amino-1,3,4-thiadiazole derivative (FABT) inhibits the extracellular signal-regulated kinase pathway and induces cell cycle arrest in human non-small lung carcinoma cells” (Bioorg Med Chem Lett, 2012)
